Measured values published in ChEMBL document CHEMBL1201862, “PubChem BioAssay data set” (2004).
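Test compounds were applied to cells in 96-well plates for 48 hours at 5 doses. GI50 is the concentration that inhibits growth by half.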 Activity calls are given as the source filed them. Rule as the data show it: active = GI50 up to about 1.1 µM and inactive = higher.

Assays:
Assay in all cases: inhibition of tumour cell growth, NCI panel, 48 h
[1] = tested on: RPMI-8226
[2] = tested on: NCI-H460
[3] = tested on: MDA-MB-231
[4] = tested on: T47D
[5] = tested on: EKVX
[6] = tested on: SNB-75
[7] = tested on: Hs-578T
[8] = tested on: IGROV-1
[9] = tested on: SNB-19
[10] = tested on: MCF7
[11] = tested on: HOP-92
[12] = tested on: HOP-62
[13] = tested on: SF-268
[14] = tested on: HCT-15
[15] = tested on: OVCAR-4
[16] = tested on: ACHN
[17] = tested on: SR
[18] = tested on: MDA-MB-435
[19] = tested on: NCI/ADR-RES
[20] = tested on: UACC-62

Structure (SMILES) | GI50 [1] | GI50 [2] | GI50 [3] | GI50 [4] | GI50 [5] | GI50 [6] | GI50 [7] | GI50 [8] | GI50 [9] | GI50 [10] | GI50 [11] | GI50 [12] | GI50 [13] | GI50 [14] [µM] | GI50 [15] | GI50 [16] | GI50 [17] | GI50 [18] | GI50 [19] | GI50 [20]
Cc1cc(C)c2c(c1)C/C(=C\c1ccccc1C(=O)O)C2=O | > 100 µM (inactive) | 11.7 µM (inactive) | > 100 µM (inactive) | 35.2 µM (inactive) | 82.6 µM (inactive) | 75.3 µM (inactive) | > 100 µM (inactive) | > 100 µM (inactive) | > 100 µM (inactive) | 78.2 µM (inactive) | 81.8 µM (inactive) | > 100 µM (inactive) | > 100 µM (inactive) | 47.4 | > 100 µM (inactive) | > 100 µM (inactive) | > 100 µM (inactive) |  |  | 
O=C(Nc1ccccc1)c1cc(S(=O)(=O)Nc2n[nH]c(=O)[nH]2)c(SSc2cc(Cl)c(C(=O)Nc3ccccc3)cc2S(=O)(=O)Nc2n[nH]c(=O)[nH]2)cc1Cl | > 100 µM (inactive) | > 100 µM (inactive) | > 100 µM (inactive) |  | > 100 µM (inactive) | > 100 µM (inactive) | > 100 µM (inactive) | > 100 µM (inactive) | > 100 µM (inactive) | > 100 µM (inactive) | > 100 µM (inactive) | > 100 µM (inactive) | > 100 µM (inactive) | > 100 | > 100 µM (inactive) | > 100 µM (inactive) | > 100 µM (inactive) | > 100 µM (inactive) | > 100 µM (inactive) | 
CC(C)(C)c1cc(COc2cc(COc3ccc(-c4c5c(nc6c4CCc4ccc(-c7c8ccccc8nc8ccccc78)cc4-6)-c4cc(-c6c7ccccc7nc7ccccc67)ccc4CC5)cc3)cc(OCc3cc(C(C)(C)C)cc(C(C)(C)C)c3)c2)cc(C(C)(C)C)c1 | > 100 µM (inactive) | > 100 µM (inactive) | > 100 µM (inactive) | > 100 µM (inactive) | > 100 µM (inactive) | > 100 µM (inactive) |  |  | > 100 µM (inactive) | > 100 µM (inactive) | > 100 µM (inactive) | > 100 µM (inactive) | > 100 µM (inactive) | > 100 | > 100 µM (inactive) | > 100 µM (inactive) |  | > 100 µM (inactive) | > 100 µM (inactive) | > 100 µM (inactive)
Cc1nc2ccccc2n1Cc1ccc(NC(=S)NC2CCCCC2)cc1 | 13.4 µM (inactive) | 35.5 µM (inactive) | 38.1 µM (inactive) | 5.74 µM (inactive) | 12.3 µM (inactive) | 24 µM (inactive) | 29 µM (inactive) | 20 µM (inactive) | 32.8 µM (inactive) | 4.86 µM (inactive) | 41.3 µM (inactive) | > 75 µM (inactive) | 17.2 µM (inactive) | 8.95 | 10.1 µM (inactive) | 4.49 µM (inactive) |  | 6.84 µM (inactive) | 35.6 µM (inactive) | 6.3 µM (inactive)
CN1CCN(C(=S)N(C(=O)c2cccs2)C2CCCCC2)CC1 | > 100 µM (inactive) | > 100 µM (inactive) | > 100 µM (inactive) | > 100 µM (inactive) |  | 89.9 µM (inactive) | > 100 µM (inactive) | > 100 µM (inactive) | > 100 µM (inactive) | > 100 µM (inactive) | > 100 µM (inactive) |  | > 100 µM (inactive) | > 100 | > 100 µM (inactive) | > 100 µM (inactive) | > 100 µM (inactive) | > 100 µM (inactive) |  | > 100 µM (inactive)
C[C@H]1OC(=O)[C@@H]2N=NN(Cc3ccccc3)[C@H]12 | > 100 µM (inactive) | > 100 µM (inactive) | > 100 µM (inactive) | > 100 µM (inactive) |  |  |  |  | > 100 µM (inactive) | > 100 µM (inactive) | > 100 µM (inactive) | > 100 µM (inactive) | > 100 µM (inactive) | > 100 | > 100 µM (inactive) | > 100 µM (inactive) | > 100 µM (inactive) | > 100 µM (inactive) | > 100 µM (inactive) | > 100 µM (inactive)
COc1cc(-c2oc3c(OC)c(O)c(OC)c(O)c3c(=O)c2OC)ccc1O | 26.1 µM (inactive) | 46.1 µM (inactive) | 44.2 µM (inactive) | 20.3 µM (inactive) | 78.7 µM (inactive) |  | 14.9 µM (inactive) | 25.4 µM (inactive) | > 100 µM (inactive) | 28.9 µM (inactive) |  | 23.1 µM (inactive) |  | 28.8 | 74.1 µM (inactive) | 41.9 µM (inactive) | 41.5 µM (inactive) | 17.8 µM (inactive) | 50.8 µM (inactive) | 20.7 µM (inactive)
COc1ccc(C2=NOC(N)(c3ccc(OC)cc3)C2)cc1 (centres undefined) | > 100 µM (inactive) | > 100 µM (inactive) | 81.5 µM (inactive) |  | > 100 µM (inactive) | > 100 µM (inactive) | 81.1 µM (inactive) | > 100 µM (inactive) | > 100 µM (inactive) | > 100 µM (inactive) | > 100 µM (inactive) | 64.7 µM (inactive) |  | > 100 | 86.5 µM (inactive) | > 100 µM (inactive) | > 100 µM (inactive) | > 100 µM (inactive) | > 100 µM (inactive) | > 100 µM (inactive)
